This assay has as its system Gram-negative and Gram-positive bacterial strains. It is filed as cell-based. The conditions noted are these: including those which are resistant to fluoroquinolone antibiotics and other antibiotics.
In the case of `COc1ccc2ncc(=O)n(CCN[C@@H]3CC[C@@H]4[C@@H](C3)OC(=O)N4c3ccc4c(n3)NC(=O)CO4)c2c1` [Compound 21, 1-(2-{[(3aR,6R,7aR)-2-oxo-3-{3-oxo-2H,3H,4H-pyrido[3,2-b][1,4]oxazin-6-yl}-octahydro-1,3-benzoxazol-6-yl]amino}ethyl)-7-methoxy-1,2-dihydroquinoxalin-2-one], the “activity against all strains of A. baumannii and E. coli tested (in words)” value (from here on “activity against all strains”) is “excellent activity”. As for `N#Cc1cccc(-c2cccc(CN[C@H]3CC[C@H]4[C@H](C3)OC(=O)N4c3ccc4c(n3)NC(=O)CO4)n2)c1` [Compound 105, 3-[6-({[(3aS,6S,7aS)-2-oxo-3-{3-oxo-2H,3H,4H-pyrido[3,2-b][1,4]oxazin-6-yl}-octahydro-1,3-benzoxazol-6-yl]amino}methyl)pyridin-2-yl]benzonitrile], the entry is “excellent activity”; as for `O=C1COc2ccc(N3C(=O)O[C@@H]4C[C@@H](NCCn5c(=O)cnc6cc(F)c(F)cc65)CC[C@@H]43)nc2N1` [Compound 22, 1-(2-{[(3aS,6S,7aR)-2-oxo-3-{3-oxo-2H,3H,4H-pyrido[3,2-b][1,4]oxazin-6-yl}-octahydro-1,3-benzoxazol-6-yl]amino}ethyl)-6,7-difluoro-1,2-dihydroquinoxalin-2-one], “excellent activity”; as for `N#Cc1ccc2ccc(=O)n(CCN[C@H]3CC[C@H]4[C@H](C3)OC(=O)N4c3ccc4c(n3)NC(=O)CO4)c2c1` [Compound 56, 1-(2-{[(3aS,6S,7aS)-2-oxo-3-{3-oxo-2H,3H,4H-pyrido[3,2-b][1,4]oxazin-6-yl}-octahydro-1,3-benzoxazol-6-yl]amino}ethyl)-2-oxo-1,2-dihydroquinoline-7-carbonitrile], “excellent activity”. As for `O=C1COc2ccc(N3C(=O)O[C@H]4C[C@@H](NCCCn5c(=O)cnc6cc(F)c(F)cc65)CC[C@@H]43)nc2N1` [Compound 90, 1-(3-{[(3aS,6S,7aS)-2-oxo-3-{3-oxo-2H,3H,4H-pyrido[3,2-b][1,4]oxazin-6-yl}-octahydro-1,3-benzoxazol-6-yl]amino}propyl)-6,7-difluoro-1,2-dihydroquinoxalin-2-one], the entry is “excellent activity”; as for `COc1cccc(-c2cccc(CN[C@@H]3CC[C@@H]4[C@@H](C3)OC(=O)N4c3ccc4c(n3)NC(=O)CO4)c2)n1` [Compound 80, (3aR,6R,7aR)-6-({[3-(6-methoxypyridin-2-yl)phenyl]methyl}amino)-3-{3-oxo-2H,3H,4H-pyrido[3,2-b][1,4]oxazin-6-yl}-octahydro-1,3-benzoxazol-2-one], “excellent activity”; as for `O=C1COc2ccc(N3C(=O)O[C@H]4C[C@@H](NCCn5c(=O)ccc6ccc(OC(F)F)cc65)CC[C@@H]43)nc2N1` [Compound 101, 1-(2-{[(3aS,6S,7aS)-2-oxo-3-{3-oxo-2H,3H,4H-pyrido[3,2-b][1,4]oxazin-6-yl}-octahydro-1,3-benzoxazol-6-yl]amino}ethyl)-7-(difluoromethoxy)-1,2-dihydro quinolin-2-one], “excellent activity”. Next, `O=C1COc2ccc(N3C(=O)O[C@@H]4C[C@H](NCCCn5c(=O)cnc6cc(F)c(F)cc65)CC[C@H]43)nc2N1` [Compound 88, 1-(3-{[(3aR,6R,7aR)-2-oxo-3-{3-oxo-2H,3H,4H-pyrido[3,2-b][1,4]oxazin-6-yl}-octahydro-1,3-benzoxazol-6-yl]amino}propyl)-6,7-difluoro-1,2-dihydroquinoxalin-2-one]: “excellent activity”. With `COc1cnc2ccc(=O)n(CCN[C@@H]3CC[C@@H]4[C@@H](C3)OC(=O)N4c3ccc4c(n3)NC(=O)CO4)c2c1` [Compound 69, 1-(2-{[(3aR,6R,7aR)-2-oxo-3-{3-oxo-2H,3H,4H-pyrido[3,2-b][1,4]oxazin-6-yl}-octahydro-1,3-benzoxazol-6-yl]amino}ethyl)-7-methoxy-1,2-dihydro-1,5-naphthyridin-2-one], the “activity against all strains” value is “excellent activity”. Next, `COc1ccc2ccc(=O)n(CCN[C@H]3CC[C@H]4[C@@H](C3)OC(=O)N4c3ccc4c(n3)NC(=O)CO4)c2n1` [Compound 4, 1-(2-{[(3aS,6S,7aR)-2-oxo-3-{3-oxo-2H,3H,4H-pyrido[3,2-b][1,4]oxazin-6-yl}-octahydro-1,3-benzoxazol-6-yl]amino}ethyl)-7-methoxy-1,2-dihydro-1,8-naphthyridin-2-one]: “excellent activity”; `COc1ccc2ccc(=O)n(CCCN[C@H]3CC[C@H]4[C@H](C3)OC(=O)N4c3ccc4c(n3)NC(=O)CS4)c2n1` [Compound 85, 1-(3-{[(3aS,6S,7aS)-2-oxo-3-{3-oxo-2H,3H,4H-pyrido[3,2-b][1,4]thiazin-6-yl}-octahydro-1,3-benzoxazol-6-yl]amino}propyl)-7-methoxy-1,2-dihydro-1,8-naphthyridin-2-one]: “excellent activity”; `N#Cc1cnc2ccc(=O)n(CCN[C@H]3CC[C@H]4[C@H](C3)OC(=O)N4c3ccc4c(n3)NC(=O)CS4)c2c1` [Compound 77, 5-(2-{[(3aS,6S,7aS)-2-oxo-3-{3-oxo-2H,3H,4H-pyrido[3,2-b][1,4]thiazin-6-yl}-octahydro-1,3-benzoxazol-6-yl]amino}ethyl)-6-oxo-5,6-dihydro-1,5-naphthyridine-3-carbonitrile]: “excellent activity”. Next, `O=C1COc2ccc(N3C(=O)O[C@H]4C[C@@H](NCCn5c(=O)cnc6cc(F)c(F)cc65)CC[C@@H]43)nc2N1` [Compound 34, 1-(2-{[(3aS,6S,7aS)-2-oxo-3-{3-oxo-2H,3H,4H-pyrido[3,2-b][1,4]oxazin-6-yl}-octahydro-1,3-benzoxazol-6-yl]amino}ethyl)-6,7-difluoro-1,2-dihydroquinoxalin-2-one]: “excellent activity”; `N#Cc1ccc2ncc(=O)n(CCN[C@@H]3CC[C@@H]4[C@@H](C3)OC(=O)N4c3ccc4c(n3)NC(=O)CO4)c2c1` [Compound 68, 4-(2-{[(3aR,6R,7aR)-2-oxo-3-{3-oxo-2H,3H,4H-pyrido[3,2-b][1,4]oxazin-6-yl}-octahydro-1,3-benzoxazol-6-yl]amino}ethyl)-3-oxo-3,4-dihydroquinoxaline-6-carbonitrile]: “excellent activity”. Next, `COc1ccc2ncc(=O)n(CCN[C@H]3CCC4C(C3)OC(=O)N4c3ccc4c(n3)NC(=O)CO4)c2n1` (stereo in doubt) [Compound 45, (3aS,6S,7aS)-6-[(2-{6-methoxy-3-oxo-3H,4H-pyrido[2,3-b]pyrazin-4-yl}ethyl)amino]-3-{3-oxo-2H,3H,4H-pyrido[3,2-b][1,4]oxazin-6-yl}-octahydro-1,3-benzoxazol-2-one]: “excellent activity”.

With `COc1cnc2ccc(=O)n(CCN[C@H]3CC[C@H]4[C@H](C3)OC(=O)N4c3ccc4c(n3)NC(=O)CS4)c2c1` [Compound 81, 1-(2-{[(3aS,6S,7aS)-2-oxo-3-{3-oxo-2H,3H,4H-pyrido[3,2-b][1,4]thiazin-6-yl}-octahydro-1,3-benzoxazol-6-yl]amino}ethyl)-7-methoxy-1,2-dihydro-1,5-naphthyridin-2-one], the “activity against all strains” value is listed as “excellent activity”. Regarding `N#Cc1cnc2ccc(=O)n(CCN[C@H]3CC[C@H]4[C@H](C3)OC(=O)N4c3ccc4c(n3)NC(=O)CO4)c2c1` [Compound 55, 5-(2-{[(3aS,6S,7aS)-2-oxo-3-{3-oxo-2H,3H,4H-pyrido[3,2-b][1,4]oxazin-6-yl}-octahydro-1,3-benzoxazol-6-yl]amino}ethyl)-6-oxo-5,6-dihydro-1,5-naphthyridine-3-carbonitrile], the “activity against all strains” value is given as “excellent activity”. Next, `COc1ccc2ccc(=O)n(CCN[C@H]3CC[C@H]4[C@H](C3)OC(=O)N4c3ccc4c(n3)NC(=O)CO4)c2c1` [Compound 102, 1-(2-{[(3aS,6S,7aS)-2-oxo-3-{3-oxo-2H,3H,4H-pyrido[3,2-b][1,4]oxazin-6-yl}-octahydro-1,3-benzoxazol-6-yl]amino}ethyl)-7-methoxy-1,2-dihydroquinolin-2-one]: “excellent activity”.

The values are drawn from patent US10487093B2, “Heterocyclic compounds, in particular 2-oxo-4,4,5,5,6,6,7,7-octahydrobenzoxazole derivatives, and their use as antibacterial compounds” (priority 2016, dated 2019).
